{"source": "patent US12404532B2", "about": "“Composition for producing glucosylated steviol glycoside including glucosyltransferase and method of producing glucosylated steviol glycoside using the same” (CJ CHEILJEDANG CORPORATION, priority 2019, dated 2025)", "molecules": {"B1": {"name": "75 kDa protein of Fraction No. 2: 75 kDa protein purified from Lactobacillus mali culture, identified by LC-MS as amino acid sequence SEQ ID NO: 1; glucosyltransferase (protein, listed as Lactobacillus mali)", "chain": "MDQMVLETQQWLNKTYGGVSGFGSVTEDGLTGWGTVYGLTRALQHELGITGLVNNFGPTSKQKFNNIAKTIVVGYTGNIAYIIQGGFWCKGITPGEFDGKFSADTASAVTTMKTKAGLADTSSSVDGNFMAALLNMSSFDLLTGGDSKVREMQQQLNHDYLAYTGILPCDGIYQRDTNSALIYALQAEEKISTSVATGAYGATTKKDTPTVKEGTTNNFVRILQWGLYVNNKAYTGAFDGVYDSAVVAAVKEFEETMALDSTDGTSAGVDIFMSLLTSAGNPDRSAIACDTSYQLNATRVATLKNAGYSIVGRYLTGTVGSGTSERAKNLTTDEITAITTGGLKIFPIYQDGASDKEAYFTAAQGKTDGTKAVYAAQDLGFKEGVVIYFAVDADIQAGDIAGSAKVYFEALYDIVTSYGYEVGIYGTRNVSATIISAGLATKAFISDMSTGYSGNLGYSIPDEWAFDQFSEISIGDFAIDKDATTSARETATGSFGVGGESGYGNAEDLAKINTIIDALSQKKNFSYLSGLKIEKTSKEYEIPGFAVDFYVQVKFEASVSEPGDNVGVVYNVSNGKFESDFTDTIAGVVALSDEINKEDINSALTELSSLINNGQIWVEPVTKGSDAGIALHIKSTFDHTLDSGETIELEYEIIIDEIFHKIEVVPTGVPNTTANDYNSLFPNGIKEFVGFSIVAGLATGGIYYVVTAVGATAAVVTTSILALIALLKNNDTGV"}}, "key": {"[1]": {"test_system": "Lactobacillus mali crude enzyme solution including the enzyme including the amino acid sequence of SEQ ID NO: 1", "test": "Glucose transfer to steviol glycoside by crude enzyme solution (HPLC)", "assay_type": "biochemical", "settings": "6% substrate, 6% white sugar, 50 mM sodium acetate buffer pH 5.0, 40 °C, 24 hours", "procedure": "6% Rebaudioside A (purecircle) or 6% Stevioside (carbosynth), and 6% white sugar (CJ CheilJedang) were dissolved in a 50 mM sodium acetate buffer (pH 5.0), and then the Lactobacillus mali crude enzyme solution including the enzyme including the amino acid sequence of SEQ ID NO: 1 was added thereto, and allowed to react at 40° C. for 24 hours. Thereafter, whether glucosylated Rebaudioside A or glucosylated Stevioside was produced was confirmed by HPLC, and the results are shown in FIGS. 2 to 5. Meanwhile, HPLC analysis conditions are as follows:\nFIGS. 2 and 4 show HPLC analysis results before the enzyme reaction, and FIGS. 3 and 5 show HPLC analysis results after the enzyme reaction."}, "[2]": {"test_system": "enzyme including the amino acid sequence of SEQ ID NO: 1", "test": "Glucose transfer to steviol glycoside by purified recombinant enzyme (HPLC)", "assay_type": "biochemical, Lactobacillus mali", "settings": "6% substrate, 6% white sugar, 50 mM sodium acetate buffer pH 5.0, 40 °C, 24 hours, purified enzyme of Example 5-1", "procedure": "A polynucleotide encoding the amino acid sequence of SEQ ID NO: 1 was prepared by a polynucleotide synthesis method (Bioneer Corp.), and the obtained polynucleotide was inserted into a pBT7-N-His vector, which was then transformed into E. coli BL21(DE3). The transformed E. coli was smeared on a plate medium containing ampicillin to obtain a recombinant strain (microorganism).\nThe recombinant E. coli strain was seeded in 5 mL of an LB medium containing ampicillin, and seed culture was carried out at 37° C. until optical density at 600 nm reached 2.0. The seed culture broth was added to 500 mL of an LB medium containing ampicillin, and main culture was carried out. Thereafter, when optical density at 600 nm reached 0.4, 0.1 mM isopropyl β-D-thiogalactopyranoside (IPTG) was added to induce mass-expression of the enzyme including the amino acid sequence of SEQ ID NO: 1. During the process, an agitation speed was 180 rpm, and culture temperature was maintained at 37° C. After IPTG addition, the agitation speed was 120 rpm, and culture temperature was maintained at 16° C.\nThe culture broth was centrifuged at 10,000×g at 4° C. for 20 minutes to obtain a cell pellet. A 50 mM tris-HCl buffer solution was added to the pellet, and re-suspended as a cell solution. The cell solution was sonicated using a sonicator. […]"}, "[3]": {"test": "Panel evaluation of actual sweetness and quality of sweetness", "settings": "for Actual Sweetness / Evaluation of Quality of Sweetness: dissolved in water, provided to panels", "description": "The known material (i.e., α-(1,4) glucosylated Rebaudioside A) and the α-(1,6) glucosylated Rebaudioside A of Example 4 were independently dissolved in water and provided to panels for evaluation of actual sweetness and quality of sweetness."}, "[4]": {"assay_type": "physicochemical", "procedure": "The solubility of steviol glycoside and glucosylated steviol glycoside was measured.\nSpecifically, the solubility of Rebaudioside A (RA), Stevioside (STV), glucosylated Rebaudioside A (RA-Glu) of Example 4, and glucosylated Stevioside (STV-Glu) of Example 4 was measured, respectively.\nEach 6 g of Rebaudioside A, Stevioside, glucosylated Rebaudioside A, and glucosylated Stevioside was mixed with 10 mL, and then dissolved by sonication at 50° C. for 60 minutes. The resultant was incubated for 1 week in a water bath at 5° C., 15° C., 25° C., 35° C., 45° C., or 55° C. Thereafter, the resulting solution was centrifuged at 12,000 rpm for 10 minutes, and 1 mL of the supernatant was collected and dried in an oven at 105° C. to measure the solubility, which is shown in Table 4."}, "[5]": {"test": "Sugar hydrolysis activity by reducing sugar determination method (DNS method)", "assay_type": "biochemical", "settings": "200 mM sugar solution, 40 °C, 10 minutes", "procedure": "To confirm the presence of the desired enzyme, sugar hydrolysis activity of each fraction was examined by a reducing sugar determination method (DNS method).\nA 200 mM sugar solution and each fraction were mixed at a ratio of 1:1 in a 50 mM sodium acetate buffer, and allowed to react in a water bath at 40° C. for 10 minutes, followed by inactivation at 100° C. A DNS reagent was added thereto at a ratio of 1:3, and then mixed and allowed to react at 100° C. for 5 minutes, and then DNS reaction was immediately stopped on ice. Thereafter, optical density (OD) of the DNS reagent was measured at 575 nm, and the activity was confirmed from a constructed fructose standard curve. At this time, 1 unit is defined by the amount (mL) of an enzyme that produces 1 μmole of fructose per 1 minute."}}, "note": "Entries after “also recorded” stand apart in the source; their conditions may differ."}
{"molecule": "C=C1C[C@@]23CC[C@H]4[C@@](C)(CCC[C@@]4(C)C(=O)O[C@@H]4O[C@H](CO)[C@@H](O)[C@H](O)[C@H]4O)[C@@H]2CC[C@]1(O[C@@H]1O[C@H](CO)[C@@H](O)[C@H](O[C@@H]2O[C@H](CO)[C@@H](O)[C@H](O)[C@H]2O)[C@H]1O[C@@H]1O[C@H](CO)[C@@H](O)[C@H](O)[C@H]1O)C3", "note": "[RA, Rebaudioside A, reference compound]", "values": [{"measurement": "Conversion rate into glucosylated steviol glycoside", "setting": "[1]", "result": "about 90%"}, {"measurement": "Conversion rate into glucosylated Rebaudioside A", "setting": "[2]", "result": "about 90%"}]}
{"molecule": "C=C1C[C@@]23CC[C@H]4[C@@](C)(CCC[C@@]4(C)C(=O)O[C@@H]4O[C@H](CO[C@H]5O[C@H](CO)[C@@H](O)[C@H](O)[C@H]5O)[C@@H](O)[C@H](O)[C@H]4O)[C@@H]2CC[C@]1(O[C@@H]1O[C@H](CO)[C@@H](O)[C@H](O[C@@H]2O[C@H](CO)[C@@H](O)[C@H](O)[C@H]2O)[C@H]1O[C@@H]1O[C@H](CO)[C@@H](O)[C@H](O)[C@H]1O)C3", "note": "[RA-Glu, glucosylated Rebaudioside A]", "values": [{"measurement": "Actual Sweetness", "setting": "[3]", "result": 26}, {"measurement": "Evaluation of Quality of Sweetness", "setting": "[3]; listed as α-(1,6) glucosylated Rebaudioside A", "result": "better quality of sweetness; also recorded: Gives sweet taste in the beginning, has"}, {"measurement": "Sweetness as compared with the α-(1,4) glucosylated Rebaudioside A", "setting": "[3]; summary of Table 5", "result": "high sweetness"}, {"measurement": "Solubility (%)", "setting": "[4]", "result": "≥ 40 ↑ %"}, {"measurement": "Solubility as compared with Stevioside and Rebaudioside A, respectively", "setting": "[4]", "result": "remarkably increased solubility"}]}
{"molecule": "C=C1C[C@@]23CC[C@H]4[C@@](C)(CCC[C@@]4(C)C(=O)O[C@@H]4O[C@H](CO)[C@@H](O)[C@H](O)[C@H]4O)[C@@H]2CC[C@]1(O[C@@H]1O[C@H](CO)[C@@H](O)[C@H](O)[C@H]1O[C@@H]1O[C@H](CO)[C@@H](O)[C@H](O)[C@H]1O)C3", "note": "[STV, Stevioside, reference compound]", "values": [{"measurement": "Conversion rate into glucosylated steviol glycoside", "setting": "[1]", "result": "about 90%"}]}
{"molecule": "C=C1C[C@@]23CC[C@H]4[C@@](C)(CCC[C@@]4(C)C(=O)O[C@@H]4O[C@H](CO[C@H]5O[C@H](CO)[C@@H](O)[C@H](O)[C@H]5O)[C@@H](O)[C@H](O)[C@H]4O)[C@@H]2CC[C@]1(O[C@@H]1O[C@H](CO)[C@@H](O)[C@H](O)[C@H]1O[C@@H]1O[C@H](CO)[C@@H](O)[C@H](O)[C@H]1O)C3", "note": "[STV-Glu, glucosylated Stevioside]", "values": [{"measurement": "Solubility (%)", "setting": "[4]", "result": "≥ 40 ↑ %"}, {"measurement": "Solubility as compared with Stevioside and Rebaudioside A, respectively", "setting": "[4]", "result": "remarkably increased solubility"}]}
{"molecule": "α-(1,4) glucosylated Rebaudioside A [reference compound]", "values": [{"measurement": "Actual Sweetness", "setting": "[3]", "result": 19}, {"measurement": "Evaluation of Quality of Sweetness", "setting": "[3]", "result": "Bitter taste is stronger than sweet taste,"}]}
{"molecule": "B1", "values": [{"measurement": "Sugar hydrolysis activity", "setting": "[5]", "result": "had sugar hydrolysis activity"}]}
